Earlier results in patent publication US20130096134A1, “HETEROCYCLIC COMPOUNDS AND THEIR USES” (Amgen Inc., priority 2010, published 2013).

Key:
[1] = test system: mouse model of rheumatoid arthritis; settings: in vivo
[2] = test system: model of systemic lupus erythematosis; settings: in vivo
p110δ = biological target: T1, p110δ (Homo sapiens, UniProt O00329)
T1 sequence (O00329 1-1044): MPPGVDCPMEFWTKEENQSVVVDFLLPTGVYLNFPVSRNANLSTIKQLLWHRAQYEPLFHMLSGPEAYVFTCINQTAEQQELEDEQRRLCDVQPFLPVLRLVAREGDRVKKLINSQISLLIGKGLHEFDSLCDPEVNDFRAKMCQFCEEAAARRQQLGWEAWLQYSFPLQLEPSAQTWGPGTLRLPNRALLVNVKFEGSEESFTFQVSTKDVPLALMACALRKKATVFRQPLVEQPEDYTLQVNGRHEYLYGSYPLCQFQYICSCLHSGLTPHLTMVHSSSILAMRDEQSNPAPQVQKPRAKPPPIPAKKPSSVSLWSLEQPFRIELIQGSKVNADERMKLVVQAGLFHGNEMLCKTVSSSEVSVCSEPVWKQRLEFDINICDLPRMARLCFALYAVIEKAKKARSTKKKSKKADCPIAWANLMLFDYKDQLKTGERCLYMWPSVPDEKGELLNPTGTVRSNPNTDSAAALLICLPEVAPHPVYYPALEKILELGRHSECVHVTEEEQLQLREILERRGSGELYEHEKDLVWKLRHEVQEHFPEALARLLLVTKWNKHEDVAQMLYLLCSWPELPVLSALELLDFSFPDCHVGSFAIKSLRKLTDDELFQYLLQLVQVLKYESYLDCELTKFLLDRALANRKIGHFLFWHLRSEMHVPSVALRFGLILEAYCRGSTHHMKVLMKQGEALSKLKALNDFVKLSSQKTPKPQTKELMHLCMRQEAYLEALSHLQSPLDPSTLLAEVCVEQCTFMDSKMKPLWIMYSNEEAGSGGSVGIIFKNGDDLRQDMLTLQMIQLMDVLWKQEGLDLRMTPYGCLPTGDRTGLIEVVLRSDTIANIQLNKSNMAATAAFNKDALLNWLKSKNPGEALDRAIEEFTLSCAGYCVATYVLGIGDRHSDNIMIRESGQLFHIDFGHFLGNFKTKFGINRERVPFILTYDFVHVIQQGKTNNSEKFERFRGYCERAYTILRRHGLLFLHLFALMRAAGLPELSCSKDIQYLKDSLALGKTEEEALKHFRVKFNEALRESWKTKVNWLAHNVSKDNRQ

murine model of asthma = settings: ovalbumin-induced airway inflammation

Row | Compound | efficacy in a mouse model of rheumatoid arthritis [1] | onset of disease in a model of systemic lupus erythematosis [2] | inhibition of p110δ (p110δ) | activity against any protein kinases tested (protein kinases) | inflammation and disease in a murine model of asthma (murine model of asthma)
1 | O=C1NC(=O)/C(=C\c2ccc3nccnc3c2)S1 [AS 605240] | efficacious | delay onset of disease | – | – | –
2 | Cc1ccccc1-n1c(Cn2cnc3c(N)ncnc32)nc2cccc(C)c2c1=O [IC87114] | – | – | high nanomolar range (triple digit) | no activity | significantly ameliorate inflammation and disease
